In ChEMBL document CHEMBL4651402, “Screening of ~5500 FDA-approved drugs and clinical candidates for anti-SARS-CoV-2 activity” (2021):

Test system: SARS-CoV-2
Test: microbe, parasite or virus in culture
Details: Severe acute respiratory syndrome coronavirus 2, Vero C1008, 48 h

Compound | IC50 [µM] | IC50 (read-out: pIC50 (converted)) [µM]
CC1(C)CC[C@]2(C(=O)O)CC[C@]3(C)C(=CCC4[C@@]5(C)CC[C@@H](O)[C@@](C)(CO)C5CC[C@]43C)C2C1 (some centres not stated) | > 20 | > 20
C=C1CC2C3C=C(C)C4=CC(=O)CCC4(C)C3CCC2(C)C1(OC(C)=O)C(C)=O (configuration not stated) | > 20 | > 20
[2H]C([2H])([2H])O[C@@H]1CN(CCCOc2ccc(F)cc2)CC[C@@H]1NC(=O)c1cc(Cl)c(N)cc1OC | > 20 | > 20
[2H][C@]1(O)[C@@H](CO)O[C@@H](n2ccc(N)nc2=O)[C@]1(C)O | > 20 | > 20
O=c1cccc2n1CC1CC2CN2CCCCC12 (configuration not stated) | > 20 | > 20
CCC(CCC(C)C1CCC2C3CC=C4CC(OC(C)=O)CCC4(C)C3CCC12C)C(C)C (configuration not stated) | > 20 | > 20
CC12C=CC(=O)C=C1CCC1C2CCC2(C)C1CC[C@]2(C)O (some centres not stated) | > 20 | > 20
NC1=NC(=O)N(C2CC(O)C(CO)O2)CN1 (configuration not stated) | > 20 | > 20
COc1cccc2c1C(=O)c1c(O)c3c(c(O)c1C2=O)CC(O)(/C(C)=N/NC(=O)c1ccccc1)CC3OC1CC(N)C(O)C(C)O1 (configuration not stated) | > 20 | > 20
CC(O)C(=O)Nc1c(I)c(C(=O)NC(CO)CO)c(I)c(C(=O)NC(CO)CO)c1I (configuration not stated) | > 20 | > 20
NC(=S)N/N=C/c1ccncc1 | > 20 | > 20
C[C@@H]1NC(=O)C2(CCCC2)NC1=O | > 20 | > 20
CC(C)(C)NC(=O)c1nn(-c2ccc(F)cc2F)c2c1C1CCC2C1 (configuration not stated) | > 20 | > 20
CC(=O)OC1(C(C)=O)CCC2C3CC(C)C4=CCCCC4(C)C3CCC21C (configuration not stated) | > 20 | > 20
CC(C)CCCC(C)C1CCC2C3CC[C@H]4CCCC[C@]4(C)C3CCC12C (some centres not stated) | > 20 | > 20
CN(C)S(=O)(=O)c1cc2c(c(Cl)c1Cl)OC(C(=O)O)C2 (configuration not stated) | > 20 | > 20
COc1cc2nccc(Oc3ccc(NC(=O)c4cn(C(C)C)c(=O)n(-c5ccc(F)cc5)c4=O)cc3F)c2cc1OC | > 20 | > 20
CN1C(=O)/C(=N/NC(N)=S)c2ccccc21 | > 20 | > 20
CC1(C)SCCN(S(=O)(=O)c2ccc(Oc3ccncc3)cc2)[C@@H]1C(=O)NO | > 20 | > 20
CN(C)N=Nc1ccc(C(=O)O)cc1 | > 20 | > 20
C=C[C@@H]1CN2CCC1C[C@@H]2[C@H](O)c1ccnc2ccccc12 (some centres not stated) | > 20 | > 20

Compound | IC50 [µM] | IC50 (read-out: pIC50 (converted)) [µM]
CC(=O)OC1CCC2(C)C(=CCC3C2CCC2(C)C(O)CCC32)C1 (configuration not stated) | > 20 | > 20
O=C1NC(=O)[C@H](c2cn3c4c(cccc24)CCC3)[C@H]1c1c[nH]c2ccccc12 | > 20 | > 20
C[14C](C)(c1ccc(O)cc1)c1ccc(O)cc1 | > 20 | > 20
CCC1(CC)C(=O)NC(=S)NC1=O | > 20 | > 20
Cc1ccc([C@@]23Cn4cccc4C(=O)N2CCN3C(=O)c2conc2C)cn1 | > 20 | > 20
C/C(=C\C(=O)OCCCCCCCCC(=O)O)C[C@@H]1OC[C@H](C[C@@H]2O[C@H]2[C@H](C)[C@H](C)O)[C@@H](O)[C@@H]1O | > 20 | > 20
CC(C(=O)O)C1CCC2C3CC=C4C[C@@H](O)CC[C@]4(C)C3CC[C@]12C (some centres not stated) | > 20 | > 20
C[C@H](Oc1ccc2[nH]nc(/C=C/c3cnn(CCO)c3)c2c1)c1c(Cl)cncc1Cl | > 20 | > 20
N=C(N)N1CCCC(CNC(=O)CC(NS(=O)(=O)c2ccc3ccccc3c2)C(=O)N(CC(=O)O)C2CC2)C1 (configuration not stated) | > 20 | > 20
CCCCCCCCCCNCCN[C@@]1(C)C[C@H](O[C@H]2[C@H](Oc3c4cc5cc3Oc3ccc(cc3Cl)[C@H](O)[C@@H](NC(=O)[C@@H](CC(C)C)NC)C(=O)N[C@@H](CC(N)=O)C(=O)N[C@H]5C(=O)N[C@@H]3C(=O)N[C@H](C(=O)N[C@H](C(=O)O)c5cc(O)c(CNCP(=O)(O)O)c(O)c5-c5cc3ccc5O)[C@@H](O)c3ccc(c(Cl)c3)O4)O[C@H](CO)[C@@H](O)[C@@H]2O)O[C@@H](C)[C@H]1O | > 20 | > 20
O=C(O)C(=O)Cc1c[nH]c2ccccc12 | > 20 | > 20
Cc1cc(O)cc(=O)o1 | > 20 | > 20
O=C(O)CCCN1CCC[C@H]1COc1ccc(Oc2ccc(Cl)cc2)cc1 | > 20 | > 20
NC(=O)Oc1ccc(Cc2ccccc2)cc1 | > 20 | > 20
COc1cc2c(cc1OC)[C@H]1CC(=O)[C@H](CC(C)C)CN1CC2 | > 20 | > 20
CC(=O)Nc1cc2ccccc2oc1=O | > 20 | > 20
CCC(C)n1ncn(-c2ccc(N3CCN(c4ccc(OC[C@@H]5CO[C@@](Cn6cncn6)(c6ccc(Cl)cc6Cl)O5)cc4)CC3)cc2)c1=O (some centres not stated) | > 20 | > 20
c1ccc2c(c1)CC[C@H](CNCCCNC1=NCCCN1)O2 | > 20 | > 20
CCN(CC)C(=S)SSC(=S)N(CC)CC | > 20 | > 20
COc1ccccc1N1CCNCC1 | > 20 | > 20
